*1 amine or outer side, *2 acyl side, *3 side chain or, on linkers, in order; H or OH if unused. Where a SMILES comes first, the peptide text is derived from it. The star is where a group is joined. X1 = Cc1ccccc1C1=C2C=CC(=N)C=C2[Si](C)(C)c2cc(N*)ccc21; Suc = O=C(CCC(=O)[*:2])[*:1]
Key:
[1] = Measurement of the optical characteristics; type: physicochemical; conditions: for Absmax / Emmax / Φn / ε: 0.1 sodium phosphate buffer with pH 3 containing 1% DMSO
Method: The optical characteristics of Suc-LLVY-SiR600 and Boc-LM-SiR600 were measured in a 0.1 sodium phosphate buffer with pH 3 containing 1% DMSO.

[2] = system: Calpain activity in A549 cells; experiment: Imaging of calpain activity in A549 cells (confocal microscope); type: cell-based; conditions: 2-μM Suc-LLVY-SiR600, 20 minutes, HBSS, 37° C.
Method: (§1) A549 cells were incubated for 10 minutes at 37° C. using (a) Hank's balanced salt solution (HBSS) containing DMSO as a control, and (b) HBSS containing 20-μM calpeptin, and further incubation for 20 minutes was carried out in 2-μM Suc-LLVY-SiR600. A fluorescence image and a differential interference image were then taken using a confocal microscope. The scale bar in the drawings is 20 μm.
(§2) Statistical analysis was carried out using Student's t-test (n=18).

[3] = system: Calpain activity in HeLa cells; experiment: Imaging of calpain activity in HeLa cells (confocal microscope); type: cell-based
Method: as §1, with “Hela” for “A549”, “[…]” for “20-μM”
as §2

calpain-1 = biological target: T1, calpain-1 (Homo sapiens, UniProt P07384); experiment: Evaluation as a calpain fluorescent probe (fluorescence spectrum after addition of calpain-1); type: biochemical
T1 sequence (P07384 1-714): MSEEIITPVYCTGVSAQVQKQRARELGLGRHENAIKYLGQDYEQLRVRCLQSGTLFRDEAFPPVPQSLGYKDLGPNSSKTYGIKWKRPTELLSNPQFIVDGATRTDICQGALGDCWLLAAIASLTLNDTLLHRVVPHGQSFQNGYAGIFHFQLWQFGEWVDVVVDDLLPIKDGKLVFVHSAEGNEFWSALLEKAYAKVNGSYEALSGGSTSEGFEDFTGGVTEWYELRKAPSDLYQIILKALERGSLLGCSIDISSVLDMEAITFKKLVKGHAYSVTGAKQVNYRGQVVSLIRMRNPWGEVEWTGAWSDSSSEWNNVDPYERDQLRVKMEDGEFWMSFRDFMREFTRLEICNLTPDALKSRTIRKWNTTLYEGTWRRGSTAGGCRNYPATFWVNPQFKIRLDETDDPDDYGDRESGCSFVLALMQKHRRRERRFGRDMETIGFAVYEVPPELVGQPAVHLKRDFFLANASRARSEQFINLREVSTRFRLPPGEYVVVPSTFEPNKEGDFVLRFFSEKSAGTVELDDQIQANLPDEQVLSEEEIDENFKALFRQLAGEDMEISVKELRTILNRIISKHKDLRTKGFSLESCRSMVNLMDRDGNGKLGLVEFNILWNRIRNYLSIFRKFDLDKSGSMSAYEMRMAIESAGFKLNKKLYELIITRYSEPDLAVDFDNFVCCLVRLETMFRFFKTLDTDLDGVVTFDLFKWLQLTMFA
T1 sequence (P04632 1-268 partner): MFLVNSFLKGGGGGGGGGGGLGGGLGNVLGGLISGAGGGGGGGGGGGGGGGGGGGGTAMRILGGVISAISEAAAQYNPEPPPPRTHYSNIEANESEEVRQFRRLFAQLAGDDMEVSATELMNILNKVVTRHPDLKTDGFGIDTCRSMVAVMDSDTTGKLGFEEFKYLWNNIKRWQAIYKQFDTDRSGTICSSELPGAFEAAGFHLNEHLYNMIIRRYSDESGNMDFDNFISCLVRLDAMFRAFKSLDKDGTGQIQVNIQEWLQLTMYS
Method: FIGS. 1(c) to 1(e) show the fluorescence spectrum 10 to 60 minutes later from addition of 5 μg calpain-1 to the Suc-LLVY-SiR600 solution (2 μM).
In FIGS. 1(b) to 1(e), the reaction was carried out in a 0.75-mL of 20-mM HEPES buffer solution (pH 7.4) containing 100-μM DTT, 10% glycerol, 0.1% CHAPS, 100-mM NaCl, 1-mM EDTA, and 1.5-mM CaCl2, and containing 1% DMSO as a cosolvent.
In FIG. 1(d), the reaction was carried out in the absence of 1.5-mM CaCl2, and in FIG. 1(e), the reaction was carried out in the presence of 1-μM calpeptin.
The reaction temperature was 25° C. in FIGS. 1(b), 1(d), and 1(e), and 37° C. in FIG. 1(c).
In FIGS. 2(b) and 2(c), the reaction was carried out in a 0.75-mL of 20-mM HEPES buffer solution (pH 7.4) containing 100-μM DTT, 10% glycerol, 0.1% CHAPS, 100-mM NaCl, 1-mM EDTA, and 1.5-mM CaCl2, and containing 1% DMSO as a cosolvent. In FIG. 2(c), the reaction was carried out in the presence of 1-μM calpeptin, and in FIG. 2(b), the reaction was carried out in the absence of calpeptin.
The reaction temperature was 25° C. in FIGS. 2(b) and 2(c), and the excitation wavelength was 593 nm.

Compound | Absmax [1] [nm] | Emmax [1] [nm] | Φn [1] | ε [1] | visualization of calpain activity in A549 cells [2] | visualization of calpain activity in HeLa cells ([3]; 2-μM Suc-LLVY-SiR600, 20 minutes, HBSS, 37° C.) | increase in fluorescence in a solution that does not contain Ca^2+ (calpain-1; probe 2 μM, 5 μg calpain-1, 10 to 60 minutes, absence of 1.5-mM CaCl2, 25° C.) | fluorescence after the reaction with calpain-1 (calpain-1; probe 2 μM, 5 μg calpain-1, 180 minutes, HEPES buffer pH 7.4 with 1.5-mM CaCl2, 25° C., excitation 593 nm) | fluorescence before the reaction with calpain-1 (calpain-1; probe 2 μM, excitation 593 nm, before addition of calpain-1, 25° C.) | absorption of light near maximum absorption (593 nm) of 2MeSiR600 ([1]; near 593 nm) | fluorescence intensity in HeLa cells on addition of calpeptin ([3]; 20-11M calpeptin 10 minutes at 37° C., then 2-μM Suc-LLVY-SiR600 20 minutes) | increase in fluorescence of Boc-LM-SiR600 with calpain-1 when calpeptin was added (calpain-1; 1-μM calpeptin, Boc-LM-SiR600 2 μM, 5 μg calpain-1, 25° C.) | increase in fluorescence of Suc-LLVY-SiR600 with calpain-1 when calpeptin is added (calpain-1; 1-μM calpeptin, Suc-LLVY-SiR600 2 μM, 5 μg calpain-1, 25° C.)
2Me SiR600 [reference compound] | 593 | 613 | 0.38 | 91,000 M^−1cm^−1 | – | – | – | – | – | – | – | – | –
Cc1ccccc1C1=C2C=CC(=N)C=C2[Si](C)(C)c2cc(NC(=O)[C@H](Cc3ccc(O)cc3)NC(=O)[C@@H](NC(=O)[C@H](CC(C)C)NC(=O)[C@H](CC(C)C)NC(=O)CCC(=O)O)C(C)C)ccc21 [Suc-LLVY-SiR600] (Suc-LLVY-X1) | 497 | 590 | 0.03 | 25,000 M^−1cm^−1 | calpain activity in cells was successfully visualized | calpain activity in HeLa cells can be monitored | an increase in fluorescence does not occur | high-intensity fluorescence was observed | fluorescence was mostly unobserved | did not absorb light | – | – | –
CCCC[C@@H](C=O)NC(=O)[C@H](CC(C)C)NC(=O)OCc1ccccc1 [calpeptin, reference compound] | – | – | – | – | – | – | – | – | – | – | fluorescence intensity in the cells was reduced | an increase in fluorescence did not occur | an increase in fluorescence does not occur

From patent US20160102336A1, “FLUORESCENT PROBE FOR DETECTING ACTIVITY OF CALPAIN” (THE UNIVERSITY OF TOKYO, priority 2013, published 2016)
